This is an account of results in patent US20250066363A1, “Bicyclic DGK Inhibitors” (Incyte Corporation, priority 2023, published 2025).

Broadly, the IC50 is the concentration needed to halve the response being measured.

One assay deals with DGKα (Homo sapiens (Human), UniProt P23743). Description: In vitro DGKα inhibition assay (ADP-Glo). The class given is biochemical. To be noted: first column of Table A; His-tagged human recombinant DGKα 0.1 nM, 50 μM ATP, 20 μM DLG. As to the method: (§1) The DGKα and DGKζ biochemical reactions were performed using His-tagged human recombinant enzymes (Signal Chem, DGKα, #D21-10BH; DGKζ, #D30-1OH)) and DLG (Dilauroyl-sn-glycerol) lipid substrate (Signal Chem, #D430-59). ADP-Glo assay was performed using ADP-Glo™ kinase Assay kit (Promega, #V9104). The reactions were carried out in assay buffer containing 40 mM Tris, pH 7.5, 0.1% CHAPS, 0.1% Prionex, 40 mM NaCl, 5 mM MgCl2, 1 mM CaCl2, and 1 mM DTT. DGKα reactions contained 0.1 nM DGKα, 50 μM ATP, and 20 μM DLG. And DGKζ reactions contained 0.4 nM DGKζ, 30 μM ATP, and 20 μM DLG.
(§2) For compound inhibition studies, 40 nL test compound in DMSO was added to wells of white polystyrene plates in 384-well (Greiner, #784075) or 1536-well format (Greiner, #782075). Compounds were added with top concentration of 2 mM with 11 point, 3-fold dilution series. Enzyme solution (contains 2× DGK enzyme concentration in 1× assay buffer) was added to the plate in 2 μL/well volume, followed by 2 μL/well of substrate solution (contains 2× concentration of ATP and DLG substrate in 1× assay buffer). Plates were then centrifuged for 1 min at 1200 RPM and sealed or lidded. For 4 μL reaction volume, test compounds were therefore diluted 100× to final top concentration of 20 μM. After 90 minute incubation, reactions were quenched by addition of 2 μL/well Promega ADP-Glo Reagent, followed by centrifugation and lidding. After 60 min incubation, 2 μL/well Promega Kinase Detection Reagent was added, plates centrifuged, and incubated for 30 min. Plates were then read using Luminescence method on BMG PHERAstar FSX plate reader. Percent inhibition was calculated and IC50s were determined using 4-parameter fit in Genedata Screener. Labcyte Echo acoustic dispenser was used for compound addition, and Formulatrix Tempest liquid handler was used for all reagent dispenses.

The target of a further assay is DGKζ (Homo sapiens (Human), UniProt Q13574). Description: In vitro DGKζ inhibition assay (ADP-Glo). To be noted: second column of Table A, head printed DGKα, presumably DGKζ; His-tagged human recombinant DGKζ 0.4 nM, 30 μM ATP, 20 μM DLG. The assay is classed as biochemical. On the procedure: as §1, §2
A general note: ADP-Glo turns the ADP formed in a reaction into a luminescent signal.

Sequence of DGKζ (Q13574 whole entry): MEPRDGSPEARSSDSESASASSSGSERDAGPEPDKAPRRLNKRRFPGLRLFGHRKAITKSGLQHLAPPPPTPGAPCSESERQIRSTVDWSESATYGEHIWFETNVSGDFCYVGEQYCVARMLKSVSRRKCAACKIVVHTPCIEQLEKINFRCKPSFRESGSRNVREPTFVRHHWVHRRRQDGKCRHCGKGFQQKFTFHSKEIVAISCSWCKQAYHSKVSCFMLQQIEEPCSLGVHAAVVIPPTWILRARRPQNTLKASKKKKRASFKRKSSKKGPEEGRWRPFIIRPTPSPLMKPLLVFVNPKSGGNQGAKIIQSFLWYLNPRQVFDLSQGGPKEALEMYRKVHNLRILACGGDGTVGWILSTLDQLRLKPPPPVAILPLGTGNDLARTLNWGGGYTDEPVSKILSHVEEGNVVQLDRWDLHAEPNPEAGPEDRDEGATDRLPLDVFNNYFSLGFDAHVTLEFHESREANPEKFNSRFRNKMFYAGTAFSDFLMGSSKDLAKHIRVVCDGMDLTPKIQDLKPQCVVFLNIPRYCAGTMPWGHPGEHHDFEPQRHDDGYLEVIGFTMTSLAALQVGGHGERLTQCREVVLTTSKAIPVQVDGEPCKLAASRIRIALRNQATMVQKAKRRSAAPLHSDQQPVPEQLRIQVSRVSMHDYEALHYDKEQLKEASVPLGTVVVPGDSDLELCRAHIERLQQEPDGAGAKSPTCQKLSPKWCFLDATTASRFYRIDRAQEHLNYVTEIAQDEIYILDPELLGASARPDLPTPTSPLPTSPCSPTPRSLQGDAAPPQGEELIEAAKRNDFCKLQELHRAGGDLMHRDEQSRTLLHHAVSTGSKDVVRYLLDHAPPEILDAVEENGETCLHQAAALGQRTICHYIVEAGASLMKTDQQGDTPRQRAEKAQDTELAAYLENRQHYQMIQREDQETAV
Sequence of DGKα (P23743 whole entry): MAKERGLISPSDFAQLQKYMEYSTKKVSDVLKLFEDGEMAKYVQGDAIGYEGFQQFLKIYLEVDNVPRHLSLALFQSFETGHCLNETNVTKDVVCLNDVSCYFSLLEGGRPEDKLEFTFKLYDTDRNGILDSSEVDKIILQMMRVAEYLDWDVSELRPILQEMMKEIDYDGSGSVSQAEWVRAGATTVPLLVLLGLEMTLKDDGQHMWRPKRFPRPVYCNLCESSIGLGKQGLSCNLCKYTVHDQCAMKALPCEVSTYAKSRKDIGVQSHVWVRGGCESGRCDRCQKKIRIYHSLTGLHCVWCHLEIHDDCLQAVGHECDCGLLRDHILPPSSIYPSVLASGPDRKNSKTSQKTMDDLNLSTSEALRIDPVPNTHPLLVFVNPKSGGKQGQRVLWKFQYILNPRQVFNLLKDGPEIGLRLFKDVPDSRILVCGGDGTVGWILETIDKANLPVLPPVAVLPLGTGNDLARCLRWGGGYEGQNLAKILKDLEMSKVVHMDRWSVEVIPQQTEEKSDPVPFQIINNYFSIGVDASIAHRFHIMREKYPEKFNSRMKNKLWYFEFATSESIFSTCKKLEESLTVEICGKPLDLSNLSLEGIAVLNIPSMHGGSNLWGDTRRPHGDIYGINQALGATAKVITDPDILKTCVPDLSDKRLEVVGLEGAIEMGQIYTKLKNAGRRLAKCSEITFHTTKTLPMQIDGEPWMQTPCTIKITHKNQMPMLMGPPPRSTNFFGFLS

Consider `CC[C@@H]1CN(c2nc(=O)n(C)c3c2nc(C)n3C[C@@H]2CCCO2)[C@@H](C)CN1C(c1ccc(C(F)(F)F)cc1)C1CC(F)(F)C1` (stereo partly drawn) [Example 38, 6-((2S,5R)-4-((3,3-Difluorocyclobutyl)(4-(trifluoromethyl)phenyl)methyl)-5-ethyl-2-methylpiperazin-1-yl)-3,8-dimethyl-9-(((S)-tetrahydrofuran-2-yl)methyl)-3,9-dihydro-2H-purin-2-one], for which the IC50 at DGKα and at DGKζ was ≤ 10 nM throughout.
Take `CC[C@@H]1CN(c2nc(=O)n(C)c3c2nc(C)n3C[C@@H]2CCCO2)[C@@H](C)CN1[C@H](C)c1ccc(C(F)(F)F)cc1` [Example 62, 6-((2S,5R)-5-ethyl-2-methyl-4-((R)-1-(4-(trifluoromethyl)phenyl)ethyl)piperazin-1-yl)-3,8-dimethyl-9-(((S)-tetrahydrofuran-2-yl)methyl)-3,9-dihydro-2H-purin-2-one]: the IC50 at DGKα and on DGKζ was ≤ 10 nM each time.
For the compound `Cc1nc2c(N3C[C@@H](C)N(C(c4ccc(C(F)(F)F)cc4)C4CC(F)(F)C4)C[C@@H]3C)nc(=O)n(C)c2n1C[C@@H]1CCCO1` (single isomer, unassigned) [Example 15], the IC50 on DGKα and on DGKζ was ≤ 10 nM each time.
For `Cc1nc2c(N3C[C@@H](C(F)F)N(C(c4ccc(C(F)(F)F)cc4)C4CC(F)(F)C4)C[C@@H]3C)nc(=O)n(C)c2n1C[C@@H]1CCCO1` (single isomer, unassigned) [Example 42], the half-inhibitory concentration (IC50) at DGKα and on DGKζ was ≤ 10 nM in each case.
Take `CC[C@@H]1CN(c2nc(=O)n(C)c3c2nnn3C[C@H]2CCCO2)[C@@H](C)CN1[C@H](CC)c1ccc(C(F)(F)F)cc1` [Example 31, 7-((2S,5R)-5-ethyl-2-methyl-4-((R)-1-(4-(trifluoromethyl)phenyl)propyl)piperazin-1-yl)-4-methyl-3-(((R)-tetrahydrofuran-2-yl)methyl)-3,4-dihydro-5H-[1,2,3]triazolo[4,5-d]pyrimidin-5-one]: the IC50 on DGKα and on DGKζ was ≤ 10 nM throughout.
For the compound `C[C@@H]1CN(c2nc(=O)n(C)c3c2c(F)cn3C[C@@H]2CCCO2)[C@@H](C)CN1C(c1ccc(F)cc1)c1ccc(F)cc1` [Example 8, 4-((2S,5R)-4-(Bis(4-fluorophenyl)methyl)-2,5-dimethylpiperazin-1-yl)-5-fluoro-1-methyl-7-(((S)-tetrahydrofuran-2-yl)methyl)-1,7-dihydro-2H-pyrrolo[2,3-d]pyrimidin-2-one], the IC50 on DGKα and on DGKζ was ≤ 100 nM throughout.
Regarding `Cc1nc2c(N3C[C@@H](C)N([C@@H](c4ccc(C(F)F)c(F)c4)C(C)C)C[C@@H]3C)nc(=O)n(C)c2n1C[C@@H]1CCCO1` [Example 56, 6-((2S,5R)-4-((R)-1-(4-(difluoromethyl)-3-fluorophenyl)-2-methylpropyl)-2,5-dimethylpiperazin-1-yl)-3,8-dimethyl-9-(((S)-tetrahydrofuran-2-yl)methyl)-3,9-dihydro-2H-purin-2-one], the IC50 at DGKα and on DGKζ was ≤ 10 nM each time.
With `Cc1nc2c(N3C[C@@H](C)N([C@H](c4ccc5ccc(C(F)(F)F)cc5n4)C(C)C)C[C@@H]3C)nc(=O)n(C)c2n1C[C@@H]1CCCO1` [Example 50, 6-((2S,5R)-2,5-dimethyl-4-((S)-2-methyl-1-(7-(trifluoromethyl)quinolin-2-yl)propyl)piperazin-1-yl)-3,8-dimethyl-9-(((S)-tetrahydrofuran-2-yl)methyl)-3,9-dihydro-2H-purin-2-one], the IC50 at DGKα and on DGKζ was ≤ 10 nM throughout.
Regarding `Cc1nc2c(N3C[C@@H](C)N([C@@H](c4ccc(C(F)(F)F)cc4)C(C)C)C[C@@H]3C)nc(=O)n(C)c2n1C[C@@H]1CCCO1` [Example 54, 6-((2S,5R)-2,5-dimethyl-4-((R)-2-methyl-1-(4-(trifluoromethyl)phenyl)propyl)piperazin-1-yl)-3,8-dimethyl-9-(((S)-tetrahydrofuran-2-yl)methyl)-3,9-dihydro-2H-purin-2-one], the IC50 at DGKα and at DGKζ was ≤ 10 nM each time.
Consider `C[C@@H]1CN(c2nc(=O)n(C)c3c2ncn3CC2(O)CCCC2)[C@@H](C)CN1C(c1ccc(Cl)cc1)C1CC(F)(F)C1` (single isomer, unassigned) [Example 66], for which the IC50 at DGKα and at DGKζ was ≤ 10 nM each time.
Consider `C[C@@H]1CN(c2nc(=O)n(C)c3c2ccn3C[C@@H]2CCCO2)[C@@H](C)CN1C(c1ccc(F)cc1)c1ccc(F)cc1` [Example 6, 4-((2S,5R)-4-(Bis(4-fluorophenyl)methyl)-2,5-dimethylpiperazin-1-yl)-1-methyl-7-(((S)-tetrahydrofuran-2-yl)methyl)-1,7-dihydro-2H-pyrrolo[2,3-d]pyrimidin-2-one], for which the concentration for half-maximal inhibition (IC50) on DGKα is ≤ 10 nM; at DGKζ it was ≤ 100 nM.
The corresponding values for `C[C@@H]1CN(c2nc(=O)n(C)c3c2nnn3C[C@H]2CCCO2)[C@@H](C)CN1C(c1ccc(F)cc1)c1ccc(F)cc1` [Example 13, 7-((2S,5R)-4-(Bis(4-fluorophenyl)methyl)-2,5-dimethylpiperazin-1-yl)-4-methyl-3-(((R)-tetrahydrofuran-2-yl)methyl)-3,4-dihydro-5H-[1,2,3]triazolo[4,5-d]pyrimidin-5-one] are ≤ 10 nM and ≤ 10 nM.
`CC(C)[C@H](c1ccc(Cl)cc1)N1C[C@H](C)N(c2nc(=O)n(C)c3c2ncn3CC2(O)CCCC2)C[C@H]1C` [Example 58, 6-((2S,5R)-4-((R)-1-(4-chlorophenyl)-2-methylpropyl)-2,5-dimethylpiperazin-1-yl)-9-((1-hydroxycyclopentyl)methyl)-3-methyl-3,9-dihydro-2H-purin-2-one]: the half-inhibitory concentration (IC50) at DGKα and at DGKζ was ≤ 10 nM in each case.
On to `CC[C@@H]1CN(c2nc(=O)n(C)c3c2nc(C)n3C[C@@H]2CCCO2)[C@@H](C)CN1C(c1ccc(F)cc1)c1ccc(F)cc1` [Example 5, 6-((2S,5R)-4-(Bis(4-fluorophenyl)methyl)-5-ethyl-2-methylpiperazin-1-yl)-3,8-dimethyl-9-(((S)-tetrahydrofuran-2-yl)methyl)-3,9-dihydro-2H-purin-2-one], for which the 50% inhibitory concentration (IC50) on DGKα and at DGKζ was ≤ 10 nM each time.
Turning to `Cc1nc2c(N3C[C@@H](C)N(C(CC(C)C)c4ccc(Cl)cc4)C[C@@H]3C)nc(=O)n(C)c2n1C[C@@H]1CCCO1` (stereo partly drawn) [Example 16, 6-((2S,5R)-4-(1-(4-Chlorophenyl)-3-methylbutyl)-2,5-dimethylpiperazin-1-yl)-3,8-dimethyl-9-(((S)-tetrahydrofuran-2-yl)methyl)-3,9-dihydro-2H-purin-2-one], the IC50 at DGKα and on DGKζ was ≤ 10 nM throughout.
With `CC(C)CC(c1ccc(Cl)cc1)N1C[C@H](C)N(c2nc(=O)n(C)c3c2ncn3C[C@H]2OCC[C@@H]2O)C[C@H]1C` (single isomer, unassigned) [Example 19], the IC50 on DGKα and at DGKζ was ≤ 10 nM in each case.
On to `Cc1nc2c(N3C[C@@H](C)N([C@@H](c4ccc5cc(F)ccc5n4)C(C)C)C[C@@H]3C)nc(=O)n(C)c2n1C[C@@H]1CCCO1` [Example 48, 6-((2S,5R)-4-((R)-1-(6-fluoroquinolin-2-yl)-2-methylpropyl)-2,5-dimethylpiperazin-1-yl)-3,8-dimethyl-9-(((S)-tetrahydrofuran-2-yl)methyl)-3,9-dihydro-2H-purin-2-one], for which the IC50 at DGKα and on DGKζ was ≤ 10 nM in each case.
For the compound `Cc1nc2c(N3C[C@@H](C)N(C(c4ccc(C(F)(F)F)cc4)C4CC(F)(F)C4)C[C@@H]3C)nc(=O)n(C)c2n1C[C@H]1OCC[C@@H]1O` (single isomer, unassigned) [Example 34], the IC50 on DGKα and at DGKζ was ≤ 10 nM in each case.
Consider `Cc1nc2c(N3C[C@@H](C)N(C(c4ccc(C(F)(F)F)cc4)C4CC(F)(F)C4)C[C@@H]3C)nc(=O)[nH]c2n1C[C@@H]1CCCO1` (single isomer, unassigned) [Example 14], for which the IC50 is ≤ 10 nM on DGKα and ≤ 100 nM on DGKζ.
Turning to `CC[C@@H]1CN(c2nc(=O)n(C)c3c2nc(C)n3C[C@H]2OCC[C@@H]2O)[C@@H](C)CN1C(c1ccc(Cl)cc1)C1CC(F)(F)C1` (stereo partly drawn) [Example 65, 6-((2S,5R)-4-((4-Chlorophenyl)(3,3-difluorocyclobutyl)methyl)-5-ethyl-2-methylpiperazin-1-yl)-9-(((2R,3S)-3-hydroxytetrahydrofuran-2-yl)methyl)-3,8-dimethyl-3,9-dihydro-2H-purin-2-one], the IC50 on DGKα and on DGKζ was ≤ 10 nM in each case.
As to `Cc1nc2c(N3C[C@@H](C)N(C(c4ccc(C(F)(F)F)cc4)[C@H]4CC4(F)F)C[C@@H]3C)nc(=O)n(C)c2n1C[C@@H]1CCCO1` (single isomer, unassigned) [Example 21], at DGKζ, the IC50 was ≤ 10 nM.
